{"source": "paper PMC6481345", "about": "“A novel anti-melanoma SRC-family kinase inhibitor” (Oncotarget, 2019)", "key": {"[1]": {"test_system": "M14 melanoma cell line", "assay": "NCI-60 human tumor cell line screen", "format": "cell-based", "method": "(§1) We first tested the impact of SAB298 on NCI-60 human tumor cell lines that included eight melanomas (performed by the NCI Development Therapeutics Program).\n(§2) SFK-inhibitors were tested on a panel of NCI-60 cell lines (Supplementary Table 1) and 30 melanoma cell lines and NBMEL, i.e., normal human melanocytes isolated from a newborn foreskin (Table 1 and Supplementary Table 2). The Yale melanoma cohort designated YU originated from tumors excised to improve patient quality of life and used with participants’ informed consent according to Health Insurance Portability and Accountability Act (HIPAA) regulations with Human Investigative Committee protocol.\n(§3) Supplementary Table 1: Cellular activity of SAB298 in a Panel of NCI-60 cancer cell lines*\n(§4) measured protein; and TI is LC50/GI50.\n(§5) Supplementary Table 2: Description of Melanoma Cell lines. See Supplementary_Table_2"}, "[2]": {"test_system": "SK-MEL-5 melanoma cell line", "assay": "NCI-60 human tumor cell line screen", "format": "cell-based", "method": "as §1, §2, §3, §4, §5"}, "[3]": {"test_system": "MALME-3M melanoma cell line", "assay": "NCI-60 human tumor cell line screen", "format": "cell-based", "method": "as §1, §2, §3, §4, §5"}, "[4]": {"test_system": "NCI-1460 NSCLC cell line", "assay": "NCI-60 human tumor cell line screen", "format": "cell-based", "method": "as §1, §2, §3, §4, §5"}, "[5]": {"test_system": "HOP-62 NSCLC cell line", "assay": "NCI-60 human tumor cell line screen", "format": "cell-based", "method": "as §1, §2, §3, §4, §5"}, "[6]": {"test_system": "SK-MEL-28 melanoma cell line", "assay": "NCI-60 human tumor cell line screen", "format": "cell-based", "method": "as §1, §2, §3, §4, §5"}, "[7]": {"test_system": "SF-268 CNS cancer cell line", "assay": "NCI-60 human tumor cell line screen", "format": "cell-based", "method": "as §1, §2, §3, §4, §5"}, "[8]": {"test_system": "MCF7 breast cancer cell line", "assay": "NCI-60 human tumor cell line screen", "format": "cell-based", "method": "as §1, §2, §3, §4, §5"}, "[9]": {"test_system": "CCRF-CEM leukemia cell line", "assay": "NCI-60 human tumor cell line screen", "format": "cell-based", "method": "as §1, §2, §3, §4, §5"}, "[10]": {"test_system": "SR leukemia cell line", "assay": "NCI-60 human tumor cell line screen", "format": "cell-based", "method": "as §1, §2, §3, §4, §5"}, "[11]": {"test_system": "KM12 colon cancer cell line", "assay": "NCI-60 human tumor cell line screen", "format": "cell-based", "method": "as §1, §2, §3, §4, §5"}, "[12]": {"test_system": "UACC-257 melanoma cell line", "assay": "NCI-60 human tumor cell line screen", "format": "cell-based", "method": "as §1, §2, §3, §4, §5"}, "[13]": {"test_system": "MDA-MB-435 melanoma cell line", "assay": "NCI-60 human tumor cell line screen", "format": "cell-based", "method": "as §1, §2, §3, §4, §5"}, "[14]": {"test_system": "UACC-62 melanoma cell line", "assay": "NCI-60 human tumor cell line screen", "format": "cell-based", "method": "as §1, §2, §3, §4, §5"}, "[15]": {"test_system": "SK-MEL-2 melanoma cell line", "assay": "NCI-60 human tumor cell line screen", "format": "cell-based", "method": "as §1, §2, §3, §4, §5"}, "[16]": {"test_system": "LOX IMVI melanoma cell line", "assay": "NCI-60 human tumor cell line screen", "format": "cell-based", "method": "as §1, §2, §3, §4, §5"}, "[17]": {"test_system": "panel of 36 recombinant kinases", "assay": "Radioisotope filter assay, panel of recombinant kinases (summary)", "format": "biochemical", "conditions": "SRC-family kinases YES1, BLK, LCK, FGR, HCK and FYN; read-out: IC50, range over kinases", "method": "(§6) The effect of SAB298 on a panel of 36 recombinant kinases, was screed with the radioisotope filter binding assay employing 10 concentrations of the compound with 10 µM ATP (Reaction Biology Corporation, Malvern, PA). In addition, we tested the endogenous kinome response to SAB298 (0.05 µM, 0.5 µM and 5 µM) in lysates from two melanoma cell lines (YUSIV and YUSIK) employing the KiNativ® platform (ActivX Biosciences Inc., La Jolla, CA). KiNativ® is a robust, high performance mass spectrometry (LC-MS^2) assay that uses biotinylated probes to measure relevant changes in the affinity to the ATP-binding sites of 205 native kinases as a function of cellular context. We also validated SAB298 effect on the activity of SRC-family kinases by probing for phosphorylated Y416, the marker of activated SFKs, with anti-IEDNEpYTAR antibodies (also known as Y419, #2101, Cell Signaling Technology, Beverly, MA). In some cases the cells were incubated overnight with 20 µM proteasome inhibitor MG-132 (CAS 133407-82-6, Millipore Sigma, Burlington, MA) to rescue degradation.\nSupplemntary Table 3: Radioisotope filter activity assay Tests for SAB298 target protein\n*These are results from 10 point dose response test employed with 10 µM ATP.\nSupplementary Table 4: Lentiviral vectors MISSION pLKO.1 puromycin bearing SFK shRNA used to test the effect of\nspecific SFK downregulation on cell proliferation […]"}, "[18]": {"biological_target": "T1, mTOR (Homo sapiens, UniProt P42345)", "T1 construct": "we tested the endogenous kinome response to SAB298; host or cells: YUSIV and YUSIK melanoma cell lysates", "assay": "KiNativ in situ kinase profiling in melanoma cell lysates", "format": "binding", "conditions": "3-point dose response", "method": "as §6"}, "[19]": {"biological_target": "T2, RIPK2 (Homo sapiens, UniProt O43353)", "T2 construct": "we tested the endogenous kinome response to SAB298; host or cells: YUSIV or YUSIK melanoma cell lysate", "T2 sequence (O43353 whole entry)": "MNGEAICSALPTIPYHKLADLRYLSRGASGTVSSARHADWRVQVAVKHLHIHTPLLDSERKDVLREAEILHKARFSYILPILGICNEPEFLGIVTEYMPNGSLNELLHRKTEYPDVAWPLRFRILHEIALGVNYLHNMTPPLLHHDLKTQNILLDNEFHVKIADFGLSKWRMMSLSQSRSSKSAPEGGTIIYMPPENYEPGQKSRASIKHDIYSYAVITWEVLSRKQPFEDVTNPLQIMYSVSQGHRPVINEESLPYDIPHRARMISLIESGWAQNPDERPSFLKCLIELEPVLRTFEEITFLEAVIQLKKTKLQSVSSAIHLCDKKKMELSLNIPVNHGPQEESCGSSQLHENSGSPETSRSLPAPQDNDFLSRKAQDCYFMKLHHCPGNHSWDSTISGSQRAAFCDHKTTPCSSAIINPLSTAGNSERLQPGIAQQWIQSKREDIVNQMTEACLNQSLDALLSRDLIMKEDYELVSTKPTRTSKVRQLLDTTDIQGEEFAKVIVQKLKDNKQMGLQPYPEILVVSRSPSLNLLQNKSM", "assay": "KiNativ in situ kinase profiling in melanoma cell lysates", "format": "binding", "conditions": "RIPK2 in YUSIK lysate; 3-point dose response", "method": "as §6"}, "[20]": {"biological_target": "T3, EGFR (Homo sapiens, UniProt P00533)", "T3 construct": "we tested the endogenous kinome response to SAB298; host or cells: YUSIV and YUSIK melanoma cell lysates", "T3 sequence (P00533 25-1210)": "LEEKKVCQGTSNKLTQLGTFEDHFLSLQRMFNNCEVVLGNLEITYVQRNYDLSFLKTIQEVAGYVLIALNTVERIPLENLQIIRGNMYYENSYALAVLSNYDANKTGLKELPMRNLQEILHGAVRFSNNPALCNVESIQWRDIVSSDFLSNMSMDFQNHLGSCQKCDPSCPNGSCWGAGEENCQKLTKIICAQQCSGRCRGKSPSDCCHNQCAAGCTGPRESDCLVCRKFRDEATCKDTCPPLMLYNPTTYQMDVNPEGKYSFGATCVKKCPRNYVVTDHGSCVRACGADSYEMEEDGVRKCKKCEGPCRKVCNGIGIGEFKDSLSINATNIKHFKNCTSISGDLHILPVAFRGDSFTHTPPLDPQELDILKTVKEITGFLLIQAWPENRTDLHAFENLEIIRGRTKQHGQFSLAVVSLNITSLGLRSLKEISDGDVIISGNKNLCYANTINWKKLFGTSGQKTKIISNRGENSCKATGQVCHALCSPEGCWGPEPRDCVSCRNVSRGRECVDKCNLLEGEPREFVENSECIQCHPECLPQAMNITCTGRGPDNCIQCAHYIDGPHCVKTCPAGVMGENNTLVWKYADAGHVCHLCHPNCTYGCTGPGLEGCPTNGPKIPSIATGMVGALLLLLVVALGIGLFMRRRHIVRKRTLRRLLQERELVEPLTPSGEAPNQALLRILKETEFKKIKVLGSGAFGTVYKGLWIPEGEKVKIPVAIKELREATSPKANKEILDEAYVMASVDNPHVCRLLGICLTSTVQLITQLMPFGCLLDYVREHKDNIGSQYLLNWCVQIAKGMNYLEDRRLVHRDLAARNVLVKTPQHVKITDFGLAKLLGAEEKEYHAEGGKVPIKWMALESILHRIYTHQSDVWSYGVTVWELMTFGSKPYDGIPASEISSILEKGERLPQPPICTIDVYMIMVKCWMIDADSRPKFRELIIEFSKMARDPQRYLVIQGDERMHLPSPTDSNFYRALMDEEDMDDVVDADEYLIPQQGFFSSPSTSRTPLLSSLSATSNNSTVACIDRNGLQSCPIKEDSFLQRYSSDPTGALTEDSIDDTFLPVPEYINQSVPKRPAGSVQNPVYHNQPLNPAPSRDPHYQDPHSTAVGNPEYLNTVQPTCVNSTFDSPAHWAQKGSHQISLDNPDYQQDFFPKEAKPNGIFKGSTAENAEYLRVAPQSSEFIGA", "assay": "KiNativ in situ kinase profiling in melanoma cell lysates", "format": "binding", "conditions": "3-point dose response", "method": "as §6"}, "[21]": {"biological_target": "T4, ERBB3 (Homo sapiens, UniProt P21860)", "T4 construct": "we tested the endogenous kinome response to SAB298; host or cells: YUSIV and YUSIK melanoma cell lysates", "T4 sequence (P21860 20-1342)": "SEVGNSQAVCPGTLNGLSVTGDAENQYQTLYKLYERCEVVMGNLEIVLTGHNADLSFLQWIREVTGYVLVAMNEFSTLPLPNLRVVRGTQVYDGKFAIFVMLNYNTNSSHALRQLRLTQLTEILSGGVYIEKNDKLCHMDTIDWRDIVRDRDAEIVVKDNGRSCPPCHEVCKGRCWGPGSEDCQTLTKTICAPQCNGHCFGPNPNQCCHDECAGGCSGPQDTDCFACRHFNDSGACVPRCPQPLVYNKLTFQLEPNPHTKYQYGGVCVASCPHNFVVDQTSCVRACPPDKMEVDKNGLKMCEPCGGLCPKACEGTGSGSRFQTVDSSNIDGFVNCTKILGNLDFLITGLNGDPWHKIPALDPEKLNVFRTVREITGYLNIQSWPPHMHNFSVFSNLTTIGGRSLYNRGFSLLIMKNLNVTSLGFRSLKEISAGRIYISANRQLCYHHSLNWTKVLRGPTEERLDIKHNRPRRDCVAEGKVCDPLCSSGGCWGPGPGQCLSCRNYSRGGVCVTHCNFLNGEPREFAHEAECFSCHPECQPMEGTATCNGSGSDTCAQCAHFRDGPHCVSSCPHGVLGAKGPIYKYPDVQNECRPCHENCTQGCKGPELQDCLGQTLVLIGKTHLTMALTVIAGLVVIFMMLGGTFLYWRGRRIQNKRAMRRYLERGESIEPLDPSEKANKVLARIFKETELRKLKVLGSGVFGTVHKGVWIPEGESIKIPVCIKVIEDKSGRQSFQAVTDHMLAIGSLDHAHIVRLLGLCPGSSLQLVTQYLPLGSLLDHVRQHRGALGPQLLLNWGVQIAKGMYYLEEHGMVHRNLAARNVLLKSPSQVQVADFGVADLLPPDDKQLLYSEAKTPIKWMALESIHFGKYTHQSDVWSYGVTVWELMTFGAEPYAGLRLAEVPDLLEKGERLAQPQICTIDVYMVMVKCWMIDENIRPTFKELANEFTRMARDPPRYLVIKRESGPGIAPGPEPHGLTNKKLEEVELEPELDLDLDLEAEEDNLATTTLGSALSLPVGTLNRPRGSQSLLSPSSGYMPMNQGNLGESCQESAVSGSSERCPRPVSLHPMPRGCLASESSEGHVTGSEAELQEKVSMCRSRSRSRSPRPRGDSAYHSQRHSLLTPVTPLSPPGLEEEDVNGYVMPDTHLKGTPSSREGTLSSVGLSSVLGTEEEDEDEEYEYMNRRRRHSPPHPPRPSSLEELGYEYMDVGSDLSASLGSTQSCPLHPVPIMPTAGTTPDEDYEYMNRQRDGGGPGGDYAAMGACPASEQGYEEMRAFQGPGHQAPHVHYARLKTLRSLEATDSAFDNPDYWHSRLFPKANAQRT", "assay": "KiNativ in situ kinase profiling in melanoma cell lysates", "format": "binding", "conditions": "3-point dose response", "method": "as §6"}, "[22]": {"biological_target": "T5, MEK1 (Homo sapiens, UniProt Q02750)", "T5 construct": "we tested the endogenous kinome response to SAB298; host or cells: YUSIV or YUSIK melanoma cell lysate", "T5 sequence (Q02750 whole entry)": "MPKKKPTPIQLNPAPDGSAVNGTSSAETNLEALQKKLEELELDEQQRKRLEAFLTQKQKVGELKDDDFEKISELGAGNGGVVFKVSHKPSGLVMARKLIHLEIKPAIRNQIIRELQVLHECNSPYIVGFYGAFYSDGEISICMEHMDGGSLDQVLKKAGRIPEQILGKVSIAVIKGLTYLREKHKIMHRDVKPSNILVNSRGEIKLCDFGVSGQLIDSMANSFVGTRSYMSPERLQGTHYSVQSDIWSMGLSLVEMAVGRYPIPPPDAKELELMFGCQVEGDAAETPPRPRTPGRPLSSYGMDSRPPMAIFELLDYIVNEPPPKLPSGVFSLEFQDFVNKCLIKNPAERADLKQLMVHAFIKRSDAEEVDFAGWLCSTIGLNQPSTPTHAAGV", "assay": "KiNativ in situ kinase profiling in melanoma cell lysates", "format": "binding", "conditions": "MEK1 in YUSIV lysate; 3-point dose response", "method": "as §6"}, "[23]": {"biological_target": "T6, MEK5 (Homo sapiens, UniProt Q13163)", "T6 construct": "we tested the endogenous kinome response to SAB298; host or cells: YUSIV and YUSIK melanoma cell lysates", "T6 sequence (Q13163 whole entry)": "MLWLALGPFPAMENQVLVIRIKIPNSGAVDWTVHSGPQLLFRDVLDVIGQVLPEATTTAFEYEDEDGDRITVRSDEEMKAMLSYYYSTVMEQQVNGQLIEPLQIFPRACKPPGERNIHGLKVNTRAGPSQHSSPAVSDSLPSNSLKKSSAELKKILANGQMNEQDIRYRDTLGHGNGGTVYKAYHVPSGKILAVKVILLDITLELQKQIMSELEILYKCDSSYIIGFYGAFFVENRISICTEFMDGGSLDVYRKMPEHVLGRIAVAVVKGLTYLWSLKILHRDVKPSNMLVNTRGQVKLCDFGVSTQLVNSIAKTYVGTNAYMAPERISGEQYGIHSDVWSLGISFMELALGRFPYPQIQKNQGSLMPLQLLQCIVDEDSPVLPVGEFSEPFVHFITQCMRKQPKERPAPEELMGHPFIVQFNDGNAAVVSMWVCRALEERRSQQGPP", "assay": "KiNativ in situ kinase profiling in melanoma cell lysates", "format": "binding", "conditions": "3-point dose response", "method": "as §6"}, "[24]": {"conditions": "50% growth inhibition, five dose, average of 2 experiments"}, "[25]": {"conditions": "cytotoxic concentration, 50% reduction in measured protein, read-out: LC50 (the source's name)"}}, "data": [{"smiles": "Nc1ncnc2c1c(-c1ccc(Oc3ccccc3)cc1)nn2C[C@@H]1SSC[C@@H]1O", "note": "[SAB298, (3S, 4S)-3-((4-amino-3-(4-phenoxyphenyl)-1H-pyrazolo[3,4-d]pyrimidin-1-yl)methyl)-1,2-dithiolan-4-ol]", "values": [{"measurement": "GI50", "setting": "[1]; [24]", "value": 21, "unit": "nM"}, {"measurement": "CC50", "setting": "[1]; [25]", "value": 105, "unit": "nM"}, {"measurement": "GI50", "setting": "[2]; [24]", "value": 251, "unit": "nM"}, {"measurement": "CC50", "setting": "[2]; [25]", "value": 2680, "unit": "nM"}, {"measurement": "GI50", "setting": "[3]; [24]", "value": 550, "unit": "nM"}, {"measurement": "CC50", "setting": "[3]; [25]", "value": "> 100", "unit": "µM"}, {"measurement": "GI50", "setting": "[4]; [24]", "value": 29, "unit": "nM"}, {"measurement": "CC50", "setting": "[4]; [25]", "value": 551, "unit": "nM"}, {"measurement": "GI50", "setting": "[5]; [24]", "value": 227, "unit": "nM"}, {"measurement": "CC50", "setting": "[5]; [25]", "value": 23.6, "unit": "µM"}, {"measurement": "GI50", "setting": "[6]; [24]", "value": 88, "unit": "nM"}, {"measurement": "CC50", "setting": "[6]; [25]", "value": "> 100", "unit": "µM"}, {"measurement": "GI50", "setting": "[7]; [24]", "value": 38, "unit": "nM"}, {"measurement": "CC50", "setting": "[7]; [25]", "value": "> 100", "unit": "µM"}, {"measurement": "GI50", "setting": "[8]; [24]", "value": 138, "unit": "nM"}, {"measurement": "CC50", "setting": "[8]; [25]", "value": 53, "unit": "µM"}, {"measurement": "GI50", "setting": "[9]; [24]", "value": 61, "unit": "nM"}, {"measurement": "CC50", "setting": "[9]; [25]", "value": "> 100", "unit": "µM"}, {"measurement": "GI50", "setting": "[10]; [24]", "value": 38, "unit": "nM"}, {"measurement": "CC50", "setting": "[10]; [25]", "value": "> 100", "unit": "µM"}, {"measurement": "GI50", "setting": "[11]; [24]", "value": 181, "unit": "nM"}, {"measurement": "CC50", "setting": "[11]; [25]", "value": 79.3, "unit": "µM"}, {"measurement": "GI50", "setting": "[12]; [24]", "value": 374, "unit": "nM"}, {"measurement": "CC50", "setting": "[12]; [25]", "value": 93.5, "unit": "µM"}, {"measurement": "GI50", "setting": "[13]; [24]", "value": 103, "unit": "nM"}, {"measurement": "CC50", "setting": "[13]; [25]", "value": 618, "unit": "nM"}, {"measurement": "GI50", "setting": "[14]; [24]", "value": 182, "unit": "nM"}, {"measurement": "CC50", "setting": "[14]; [25]", "value": 872, "unit": "nM"}, {"measurement": "GI50", "setting": "[15]; [24]", "value": 212, "unit": "nM"}, {"measurement": "CC50", "setting": "[15]; [25]", "value": 19.4, "unit": "µM"}, {"measurement": "GI50", "setting": "[16]; [24]", "value": 170, "unit": "nM"}, {"measurement": "CC50", "setting": "[16]; [25]", "value": 4.55, "unit": "µM"}, {"measurement": "IC50", "setting": "[17]", "value": "0.7 to 21.7", "unit": "nM"}, {"measurement": "IC50", "setting": "[18]; mTOR in YUSIK lysate", "value": 2000, "unit": "nM"}, {"measurement": "IC50", "setting": "[18]; mTOR in YUSIV lysate", "value": 1300, "unit": "nM"}, {"measurement": "IC50", "setting": "[19]", "value": 20, "unit": "nM"}, {"measurement": "IC50", "setting": "[20]; EGFR in YUSIK lysate", "value": 530, "unit": "nM"}, {"measurement": "IC50", "setting": "[20]; EGFR in YUSIV lysate", "value": 1300, "unit": "nM"}, {"measurement": "IC50", "setting": "[21]; ERBB3 in YUSIK lysate", "value": 240, "unit": "nM"}, {"measurement": "IC50", "setting": "[21]; ERBB3 in YUSIV lysate", "value": 290, "unit": "nM"}, {"measurement": "IC50", "setting": "[22]", "value": 2900, "unit": "nM"}, {"measurement": "IC50", "setting": "[23]; MEK5 in YUSIK lysate", "value": 1500, "unit": "nM"}, {"measurement": "IC50", "setting": "[23]; MEK5 in YUSIV lysate", "value": 370, "unit": "nM"}]}]}
